This passage reports IC50 results from US10899764B2, “Imidazo isoindole derivative, preparation method therefor and medical use thereof” (Jiangsu Hengrui Medicine Co., Ltd., priority 2015, dated 2021).

The target of test [1] is human IDO1 (Homo sapiens (Human), UniProt P14902). In words: Inhibition activity on human IDO1 (enzyme assay, absorbance at 480 nm). Type of test: biochemical. The following applies: purified recombinant human IDO1, 1 hour at 37° C.; read-out: IC50 for inhibiting the activity of human IDO1. As to the method:
Assay for Determining the Inhibition Activity of the Present Compounds on Human IDO1
Human IDO1 activity was tested in vitro by the following method.
This method is used to determine the inhibition effect of the compounds of the present invention on the activity of human IDO1.
The human IDO1 gene was transferred to Pet30a plasmid by gene cloning, and then transferred to competent Escherichia coli Rosseta. The IDO1 gene was scaled-up by culturing in liquid LB (Luria-Bertani) medium [which was prepared per liter according to “Molecular Cloning A Laboratory Manual” (J. Sambrook, D. W. Russell)]). The bacteria were collected and lysed by ultrasonic waves. The purified IDO1 was obtained by eluting from a column.
For testing, 24 μL of enzyme (IDO1) was diluted 100 times with 50 mM KPB to 2400 μL. The concentration of the enzyme solution was 2.6 ng/μL. A 96 well reaction plate (AXYGEN, PCR-96-FLT-C) (hereinafter referred to as the “reaction plate”) was added with the enzyme solution at 24 μL/well. The blank well was added with 24 μL of KPB [Preparation of KPB buffer (50 mM): 6.805 g of KH2PO4 was weighed using an analytical balance, and placed into a 1000 mL beaker, deionized water was added with a measuring cylinder to 900 ml, the pH was adjusted to 6.5 by 1M KOH, then the mixture was introduced into a 1 L measuring cylinder, and water was added to 1 L. It was stored at 4° C.]. Then, 1 μL of a compound or DMSO was added into the corresponding wells in the reaction plate. Preparation of solution A: 200 μL of 500 mM L-sodium ascorbate were added with 1050 μL of KPB, then the mixture was mixed uniformly for 3 seconds at the maximum speed in a turbine mixer. Solution B: 100 μL of 10 mM tryptophan were added with 100 μL of 100,000 unit/mL catalase, 5 μL of 10 mM methylene blue, and 1050 μL of KPB successively, then the mixture was mixed uniformly for 3 seconds at the maximum speed in a turbine mixer. Then, 1200 μL of solution A and 1200 μL of solution B were taken and mixed uniformly for 3 seconds at the maximum speed in a turbine mixer. The mixture was added to the reaction plate at 24 μL/well. The reaction plate was placed in a plate centrifuge and centrifuged for 15 seconds at the maximum speed, so that the reaction liquids converged to the bottom. The reaction mixture was mixed uniformly for 30 seconds on a shaker, and incubated for 1 hour at 37° C. in a constant temperature incubator. In the reaction plate, 30% (W/V) trichloroacetic acid was added at 10 μL/well, then the mixture was incubated for 15 minutes at 65° C. in an incubator. The reaction plate was centrifuged in a centrifuge for 5 minutes at 4700 RPM at room temperature. […] Then, 2% (W/V) 4-(dimethylamino)benzaldehyde/glacial acetic acid solution was added at 40 μL/well, and the mixture was mixed uniformly for 1 minute on a shaker at the maximum speed. After incubation for 2 minutes at room temperature, the absorbance at 480 nm was read on a Synergy HT (BIOTEK) reader.
The inhibition activity of the compounds of the present invention on human IDO1 was tested by the assay described above.

In test [2] the target is IDO in HeLa cells (Homo sapiens (Human), UniProt P14902). Description: Inhibition activity on IDO in HeLa cells (INF-γ induced). The format is cell-based. The following applies: HeLa cells, INF-γ and tryptophan, 48 hours; read-out: IC50 for inhibiting the activity of IDO in HeLa cells. As to the method: Assay for Determining the Inhibition Activity of the Present Compounds on IDO in HeLa Cells
IDO activity in HeLa cells was tested in vitro by the following method.
This method is used to determine the inhibition effect of the compounds of the present invention on the activity of IDO in HeLa cells. (Note: indoleamine 2,3-dioxygenase (IDO) is expressed in the HeLa cell line and induced by interferon gamma (INF-γ)).
The supernatant was removed, serum-free DMEM high glucose medium was added at 90 μL/well, then the compounds contained in the culture medium with INF-γ and tryptophan were added at 10 μL/well (the final concentrations: 10000, 1000, 100, 10, 1, 0.1 nM). […] Then, 80 μL of the supernate was transferred from the 96-well cell culture plate to a 96 well round-bottomed plate, then 30% (W/V) trichloroacetic acid was added at 16 μL/well, then the mixture was incubated for 25 minutes at 65° C. in an incubator. The reaction plate was centrifuged in a centrifuge for 5 minutes at 4700 RPM. Then, 50 μL of the supernatant was transferred from the reaction plate to a 96-well flat-bottomed transparent plate by a multi-channel pipette. Then, 2% (W/V) 4-(dimethylamino)benzaldehyde/glacial acetic acid solution was added at 50 μL/well, then the mixture was mixed uniformly for 1 minute on a shaker. After incubation for 2 minutes at room temperature, the absorbance at 480 nm was read on a Synergy HT Reader.
The inhibition activity of the compounds of the present invention on IDO in HeLa cells was tested by the assay described above.

pIC50: −log10 of the molar value. Counter-ions that a name gives are not always drawn.

Sequence of IDO in HeLa cells (P14902 whole entry): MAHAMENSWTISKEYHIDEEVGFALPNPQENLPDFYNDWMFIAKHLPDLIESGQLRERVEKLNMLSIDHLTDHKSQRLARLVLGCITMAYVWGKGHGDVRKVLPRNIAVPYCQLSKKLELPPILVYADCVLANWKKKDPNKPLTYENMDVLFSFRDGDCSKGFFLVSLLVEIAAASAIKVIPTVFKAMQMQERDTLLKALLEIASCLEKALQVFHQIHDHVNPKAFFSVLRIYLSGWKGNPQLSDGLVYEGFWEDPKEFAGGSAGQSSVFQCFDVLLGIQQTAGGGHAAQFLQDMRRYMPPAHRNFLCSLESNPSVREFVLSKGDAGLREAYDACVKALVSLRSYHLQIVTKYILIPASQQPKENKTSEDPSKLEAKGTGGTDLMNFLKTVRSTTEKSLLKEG
Sequence of human IDO1 (P14902 whole entry): as above

By pIC50 is commonly meant the IC50 on a negative log10 scale, so that one unit is a factor of ten. Consider `Fc1cccc(N2CCC(C3c4c(F)cccc4-c4cncn43)CC2)c1` (stereo not shown) [Example 3, 6-fluoro-5-(1-(3-fluorophenyl)piperidin-4-yl)-5H-imidazo[5,1-a]isoindole trifluoroacetate], for which the pIC50 in test [1] is 7.14; in test [2] it was 6.78.
For the compound `OCCn1cc(-c2ccc(N3CCC([C@H]4c5c(F)cccc5-c5cncn54)CC3)cc2)cn1` [Example 41, (S)-2-(4-(4-(4-(6-fluoro-5H-imidazo[5,1-a]isoindol-5-yl)piperidin-1-yl)phenyl)-1H-pyrazol-1-yl)ethanol], the pIC50 was 8.04 in test [1] and 7.32 in test [2].
